How the values were obtained:
Format in all cases: cell-based, human
pro-caspase-4 = assay: Cleavage of pro-caspase-4 in SK-N-SH cells treated with apoptosis inducers (Western blotting); conditions: tunicamycin 1 μg/ml, thapsigargin 0.5 μM, etoposide 100 μM for 16 or 24 hours, staurosporine 0.1 μM for 8 hours
Method: SK-N-SH cells were treated with various kinds of apoptosis inducers such as tunicamycin (manufactured by SIGMA), thapsigargin (manufactured by SIGMA), etoposide (manufactured by SIGMA), staurosporine (manufactured by SIGMA), UV and the like, to evaluate change in caspase-4. Specifically, SK-N-SH cells were treated either with exposure to an endoplasmic reticulum stress inducer, tunicamycin (1 μg/ml) or thapsigargin (0.5 μM), exposure to a non-endoplasmic reticulum stress inducer, etoposide (100 μM) or staurosporine (0.1 μM), or irradiated with 150 J/m2 UV, in α-MEM (manufactured by Invitrogen) containing 10% by weight of fetal bovine serum, at 37° C. under 5% by volume of CO2. Here, the exposures to tunicamycin, thapsigargin and etoposide were 16 or 24 hours, exposure to staurosporine was 8 hours, and UV irradiation was 8 hours.
(§1) Thereafter, the cells obtained were washed with phosphate buffered saline, and then harvested. The resulting cells were lysed in TNE buffer (composition: 10 mM Tris-HCl, pH 7.8, 1 mM EDTA, 150 mM NaCl, 1 mM phenylmethylsulphonyl fluoride) containing 0.5% by weight of NP-40 (trade name: Nonidet P-40), to give a cell extract. Equal amount of a cell extract (corresponding to 15 μg of protein) was subjected to 12% by weight SDS-PAGE. After the SDS-PAGE, proteins on the gel were transferred to a PVDF membrane (manufactured by Millipore). The membrane was blocked with 5% by weight of bovine serum albumin (BSA). The resulting membrane was incubated with a primary antibody (anti-caspase-4 antibody, anti-caspase-3 antibody, anti-caspase-7 antibody or anti-β-actin antibody), and thereafter incubated with a horseradish peroxidase (HRP)-conjugated secondary antibody. Thereafter, caspase-4, caspase-3, caspase-7 or β-actin was detected with trade name: ECL detection system (manufactured by Amersham-Pharmacia).

SK-N-SH cells = assay: Thapsigargin-induced cell death assessed by morphological changes in SK-N-SH cells; conditions: untransfected SK-N-SH cells; 0.5 μM thapsigargin for 40 hours
Method: In the same manner as described above, cellular morphological changes of SK-N-SH cells treated with various apoptosis inducers were evaluated by phase contrast microscopy. SK-N-SH cells treated in the same manner were stained with 10 μM Hoechst 33342. Nuclear morphological changes of stained cells were evaluated by fluorescence microscopy. Cell death was detected by using as an index cellular morphological changes and nuclear morphological changes. At least 500 cells were counted. The data was expressed as the mean ±SEM from three independent experiments and P values were calculated by Student's t-test.
SK-N-SH cell was transfected at 50% of confluence with 1.0 μg of the siRNA in 24-well plastic plates (manufactured by Nunc) containing αMEM (manufactured by Invitrogen) containing 10% by weight of fetal bovine serum, at 37° C. under 5% by volume of CO2, using trade name: Oligofectamine (manufactured by Invitrogen) according to the manufacturer's protocol. Transfected SK-N-SH cells were incubated at 37° C. for 60 hours without changing the medium.
In addition, SK-N-SH cells after the culturing were incubated in αMEM (manufactured by Invitrogen) containing 10% by weight of fetal bovine serum at 37° C. under 5% by volume of CO2, with or without 0.5 μM thapsigargin for 40 hours. […] Caspase-4 or β-actin was then detected with an ECL detection system (manufactured by Amersham-Pharmacia). […]

caspase-4 = assay: Cleavage of caspase-4 in SK-N-SH cells treated with amyloid-β peptides (Western blotting); conditions: 25 μM Aβ25-35, 5 μM Aβ1-40, 25 μM Aβ35-25, 5 M Aβ40-1
Method: as §1, with “Amersham-Pharmacia). […]” for “Amersham-Pharmacia).”
SK-N-SH cells were incubated in α-MEM (manufactured by Invitrogen) containing 10% by weight of fetal bovine serum, at 37° C. under 5% by volume of CO2, with 25 μM Aβ25-35, 5 μM Aβ1-40, 25 μM Aβ35-25, or 5 M Aβ40-1. Caspase-4, caspase-7 or β-actin in the cell extract was then detected in the same manner as described above.

SK-N-SH cell = assay: Nuclear morphological changes (Hoechst33342) after tunicamycin in vector-transfected SK-N-SH cells; conditions: tunicamycin 1 μg/ml for 30 hours
Method: (§2) SK-N-SH cells were stably transfected with pCAGGS-hBcl-2 (Iwahashi, H. et al., Nature, 390, 413-417 (1997), all teachings of which are incorporated herein by reference) by a conventional method. The resulting cells were then cultured in αMEM (manufactured by Invitrogen) containing 10% by weight of fetal bovine serum, at 37° C. under 5% by volume of CO2 to overexpress Bcl-2. Similarly, HeLa cells were stably transfected with pCAGGS-hBcl-2. The resulting cells were then cultured in DMEM (manufactured by Invitrogen) containing 10% by weight of fetal bovine serum, at 37° C. under 5% by volume of CO2 for 48 hours to overexpress Bcl-2. Here, SK-N-SH cells and HeLa cells were stably transfected with trade name: pCAGGS (Hitoshi Niwa et al., Gene, 108, 193-200 (1991), all teachings of which are incorporated herein by reference) as controls, in the same manner as described above, respectively.
(§3) In addition, each of the transfectants was treated with tunicamycin (1 μg/ml) for 30 hours, stained with Hoechst33342, and observed by fluorescence microscopy.

HeLa cell = assay: Nuclear morphological changes (Hoechst33342) after tunicamycin in vector-transfected HeLa cells; conditions: tunicamycin 1 μg/ml for 30 hours
Method: as §2, §3

Compound	cleavage of pro-caspase-4 (pro-caspase-4)	cleavage of caspase-4 (caspase-4)	also measured
COc1cc([C@@H]2c3cc4c(cc3[C@@H](O[C@@H]3O[C@@H]5CO[C@@H](C)O[C@H]5[C@H](O)[C@H]3O)[C@H]3COC(=O)[C@H]23)OCO4)cc(OC)c1O [etoposide]	not cleaved		
CN[C@@H]1C[C@H]2O[C@@](C)([C@@H]1OC)n1c3ccccc3c3c4c(c5c6ccccc6n2c5c31)C(=O)NC4 [staurosporine]	not cleaved		
C/C=C(/C)C(=O)O[C@H]1C(C)=C2[C@H]([C@@H]1OC(=O)CCCCCCC)[C@@](C)(OC(C)=O)C[C@H](OC(=O)CCC)[C@@]1(O)[C@H]2OC(=O)[C@@]1(C)O [thapsigargin]	induced the cleavage of pro-caspase-4		cells resulting in death (SK-N-SH cells): about 60%
Aβ1-40: amyloid-β peptide 1-40		cleavage of caspase-4 was observed	
Aβ25-35: partial peptide of amyloid-β (GSNKGAIIGLM; Amyloid-beta protein 40; UniProt P05067 696-706, looked up, fragment)		cleavage of caspase-4 was observed	
tunicamycin	induced the cleavage of pro-caspase-4		apoptotic nuclear morphological changes (SK-N-SH cell): apoptotic nuclear morphological changes were induced; apoptotic nuclear morphological changes (HeLa cell): apoptotic nuclear morphological changes were induced

From US20060024699A1, “Method for evaluating a substance capable of effecting on endoplasmic reticulum stress-and/or amyloid beta-induced apoptosis” (priority 2004, published 2006)
